{"source": "patent US20180193490A1", "about": "“Beta Amyloid Staging” (GE HEALTHCARE LIMITED, priority 2015, published 2018)", "biological_target": "T1, beta amyloid (Aβ) plaques in the brain (Homo sapiens, UniProt P05067)", "T1 construct": "from tissue; host or cells: brain of living subjects (cortex and striatum), in vivo PET", "T1 sequence (P05067 672-713 limits assumed)": "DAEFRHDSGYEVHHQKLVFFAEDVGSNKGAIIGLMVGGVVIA", "test": "GE067-026 blinded image evaluation (BIE) of amyloid PET images, separate cortical and striatal assessment", "assay_type": "in vivo", "conditions": "for Subjects classified C+S+ by BIE assessment / Subjects classified C+S− by BIE assessment / Subjects classified C−S+ by BIE assessment / Subjects classified C−S− by BIE assessment: GE067-026 data set, N = 106; for BIE assessments C+S+ against striatal plaque count by histopathology / BIE assessments C+S− against striatal plaque count by histopathology / BIE assessments C−S− against striatal plaque count by histopathology: N = 108 subjects and 5 readers", "excerpt": "The data presented explore the use of separate cortical and striatal assessments to aid the Thal (amyloid) phase assignation to in life subjects. The data sets used are from a Flutemetamol (18F) Injection Phase III clinical trial. In this trial PET image assessment was compared to histopathological assessment of amyloid pathology from autopsy. The available data for a preliminary analysis of amyloidosis staging using separate cortical and striatal assessments comes from two sources: • (1) The blinded image evaluations (BIEs) from the GE067-026 clinical trial (NCT02090855) • (2) Provisional SUVR determinations in post-hoc analyses of the GE067-026 data During the BIEs for the above trial, 5 independent readers assessed each of 106 amyloid PET images as abnormal or normal. These dichotomous assessments formed the primary analysis for the trial. However, the individual cortical and striatal assessments were recorded and were re-analysed to estimate the cortical and striatal status separately. For each subject, each of the five readers rated 4 cortical regions and 1 striatal region as Aβ positive or Aβ negative.^1 ^1 All regions assessed are bilateral. Readers assessed images bilaterally—left and right hemispheres—but recoded only one result for each of the 5 bilateral regions. Applying the same general principle that if any of the 4 cortical regions are positive this confers cortical positivity, separate cortical and striatal assessments were determined for each case.", "data": [{"smiles": "CNc1ccc(-c2nc3ccc(O)cc3s2)cc1F", "note": "[Flutemetamol]", "values": [{"measurement": "Share of C+S− cases that were phase 3", "setting": "BIE majority assessment", "value": 75, "unit": "%"}, {"measurement": "Cases identified as C+S− by Majority assessment", "setting": "BIE majority, all Thal phases", "value": 6}, {"measurement": "Subjects classified C+S+ by BIE assessment", "setting": "Reader A", "value": 73}, {"measurement": "Subjects classified C+S− by BIE assessment", "setting": "Reader A", "value": 5}, {"measurement": "Subjects classified C−S+ by BIE assessment", "setting": "Reader A", "value": 1}, {"measurement": "Subjects classified C−S− by BIE assessment", "setting": "Reader A", "value": 28}, {"measurement": "Subjects classified C+S+ by BIE assessment", "setting": "Reader B", "value": 68}, {"measurement": "Subjects classified C+S− by BIE assessment", "setting": "Reader B", "value": 4}, {"measurement": "Subjects classified C−S+ by BIE assessment", "setting": "Reader B", "value": 0}, {"measurement": "Subjects classified C−S− by BIE assessment", "setting": "Reader B", "value": 35}, {"measurement": "Subjects classified C+S+ by BIE assessment", "setting": "Reader C", "value": 64}, {"measurement": "Subjects classified C+S− by BIE assessment", "setting": "Reader C", "value": 6}, {"measurement": "Subjects classified C−S+ by BIE assessment", "setting": "Reader C", "value": 0}, {"measurement": "Subjects classified C−S− by BIE assessment", "setting": "Reader C", "value": 37}, {"measurement": "Subjects classified C+S+ by BIE assessment", "setting": "Reader D", "value": 35}, {"measurement": "Subjects classified C+S− by BIE assessment", "setting": "Reader D", "value": 38}, {"measurement": "Subjects classified C−S+ by BIE assessment", "setting": "Reader D", "value": 0}, {"measurement": "Subjects classified C−S− by BIE assessment", "setting": "Reader D", "value": 34}, {"measurement": "Subjects classified C+S+ by BIE assessment", "setting": "Reader E", "value": 70}, {"measurement": "Subjects classified C+S− by BIE assessment", "setting": "Reader E", "value": 5}, {"measurement": "Subjects classified C−S+ by BIE assessment", "setting": "Reader E", "value": 2}, {"measurement": "Subjects classified C−S− by BIE assessment", "setting": "Reader E", "value": 30}, {"measurement": "BIE assessments C+S+ against striatal plaque count by histopathology", "setting": "STR Plaques Frequent", "value": 289}, {"measurement": "BIE assessments C+S− against striatal plaque count by histopathology", "setting": "STR Plaques Frequent", "value": 37}, {"measurement": "BIE assessments C−S− against striatal plaque count by histopathology", "setting": "STR Plaques Frequent", "value": 23}, {"measurement": "BIE assessments C+S+ against striatal plaque count by histopathology", "setting": "STR Plaques Moderate", "value": 18}, {"measurement": "BIE assessments C+S− against striatal plaque count by histopathology", "setting": "STR Plaques Moderate", "value": 17}, {"measurement": "BIE assessments C−S− against striatal plaque count by histopathology", "setting": "STR Plaques Moderate", "value": 24}, {"measurement": "BIE assessments C+S+ against striatal plaque count by histopathology", "setting": "STR Plaques None", "value": 0}, {"measurement": "BIE assessments C+S− against striatal plaque count by histopathology", "setting": "STR Plaques None", "value": 1}, {"measurement": "BIE assessments C−S− against striatal plaque count by histopathology", "setting": "STR Plaques None", "value": 98}, {"measurement": "BIE assessments C+S+ against striatal plaque count by histopathology", "setting": "STR Plaques Sparse", "value": 0}, {"measurement": "BIE assessments C+S− against striatal plaque count by histopathology", "setting": "STR Plaques Sparse", "value": 1}, {"measurement": "BIE assessments C−S− against striatal plaque count by histopathology", "setting": "STR Plaques Sparse", "value": 19}, {"measurement": "Cases categorised C+S+ by BIE majority", "setting": "Thal (amyloid) Phase 0", "value": 0}, {"measurement": "Cases categorised C+S− by BIE majority", "setting": "Thal (amyloid) Phase 0", "value": 0}, {"measurement": "Cases categorised C−S+ by BIE majority", "setting": "Thal (amyloid) Phase 0", "value": 0}, {"measurement": "Cases categorised C−S− by BIE majority", "setting": "Thal (amyloid) Phase 0", "value": 7}, {"measurement": "Cases categorised C+S+ by BIE majority", "setting": "Thal (amyloid) Phase 1", "value": 0}, {"measurement": "Cases categorised C+S− by BIE majority", "setting": "Thal (amyloid) Phase 1", "value": 0}, {"measurement": "Cases categorised C−S+ by BIE majority", "setting": "Thal (amyloid) Phase 1", "value": 0}, {"measurement": "Cases categorised C−S− by BIE majority", "setting": "Thal (amyloid) Phase 1", "value": 10}, {"measurement": "Cases categorised C+S+ by BIE majority", "setting": "Thal (amyloid) Phase 2", "value": 0}, {"measurement": "Cases categorised C+S− by BIE majority", "setting": "Thal (amyloid) Phase 2", "value": 0}, {"measurement": "Cases categorised C−S+ by BIE majority", "setting": "Thal (amyloid) Phase 2", "value": 0}, {"measurement": "Cases categorised C−S− by BIE majority", "setting": "Thal (amyloid) Phase 2", "value": 5}, {"measurement": "Cases categorised C+S+ by BIE majority", "setting": "Thal (amyloid) Phase 3", "value": 3}, {"measurement": "Cases categorised C+S− by BIE majority", "setting": "Thal (amyloid) Phase 3", "value": 4}, {"measurement": "Cases categorised C−S+ by BIE majority", "setting": "Thal (amyloid) Phase 3", "value": 0}, {"measurement": "Cases categorised C−S− by BIE majority", "setting": "Thal (amyloid) Phase 3", "value": 7}, {"measurement": "Cases categorised C+S+ by BIE majority", "setting": "Thal (amyloid) Phase 4", "value": 17}, {"measurement": "Cases categorised C+S− by BIE majority", "setting": "Thal (amyloid) Phase 4", "value": 2}, {"measurement": "Cases categorised C−S+ by BIE majority", "setting": "Thal (amyloid) Phase 4", "value": 0}, {"measurement": "Cases categorised C−S− by BIE majority", "setting": "Thal (amyloid) Phase 4", "value": 5}, {"measurement": "Cases categorised C+S+ by BIE majority", "setting": "Thal (amyloid) Phase 5", "value": 46}, {"measurement": "Cases categorised C+S− by BIE majority", "setting": "Thal (amyloid) Phase 5", "value": 0}, {"measurement": "Cases categorised C−S+ by BIE majority", "setting": "Thal (amyloid) Phase 5", "value": 0}, {"measurement": "Cases categorised C−S− by BIE majority", "setting": "Thal (amyloid) Phase 5", "value": 0}]}]}
